{
  "source": "patent US6667387B1",
  "about": "“HCV core peptides” (priority 1992, dated 2003)",
  "key": {"[1]": {"tested_on": "antibodies in sera from HCV-seropositive donors", "test": "ELISA with HCV antibody-positive sera (biotinylated peptides on streptavidin- or avidin-coated plates, unbiotinylated peptides coated directly)", "format": "binding, human", "details": "for PEPTIDE ELISA (O.D.): Table 12, biotinylated 20-mers", "procedure,_shortened": "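Read-out is OD at 450 nm after HRP goat anti-human Ig and TMB development, following 1 h at 37° C. with seropositive or negative sera diluted 1:100 (or 20-fold). Antigen was either unbiotinylated peptide adsorbed on plastic (pH 9.6 carbonate, 2–5 or 3 μg/ml) or biotinylated peptide at 1 μg/ml captured on streptavidin-coated wells, with casein blocking.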"}, "[2]": {"test": "ELISA with seronegative / negative control sera (specificity)", "format": "binding, human", "procedure,_shortened": "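Specificity readout is OD at 450 nm (HRP goat anti-human Ig, TMB/H2O2, sulfuric acid stop), with ≥0.250 counted positive. Seronegative donor sera (typically 1:100, 1 h, 37° C) were applied to casein-blocked wells coated with peptide directly or via streptavidin capture of biotinylated peptide.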"}},
  "note": "Ends that are not written are not given here.",
  "data": [
    {"sequence": "PQRKTKRNTNRRPQDVKFPG", "values": [
      {"measurement": "optical density (450 nm)", "setting": "[1]; Table 4C, serum 8241, 20-fold dilution", "result": 0.545},
      {"measurement": "optical density (450 nm)", "setting": "[1]; Table 4C, serum 8242, 20-fold dilution", "result": 2.415},
      {"measurement": "optical density (450 nm)", "setting": "[1]; Table 4C, serum 8243, 20-fold dilution", "result": 2.306},
      {"measurement": "optical density (450 nm)", "setting": "[1]; Table 4C, serum 8247, 20-fold dilution", "result": 1.975},
      {"measurement": "optical density (450 nm)", "setting": "[1]; Table 4C, serum 8250, 20-fold dilution", "result": 0.357},
      {"measurement": "optical density (450 nm)", "setting": "[1]; Table 4C, serum 8271, 20-fold dilution", "result": 1.284},
      {"measurement": "optical density (450 nm)", "setting": "[1]; Table 4C, serum 8273, 20-fold dilution", "result": 2.769},
      {"measurement": "optical density (450 nm)", "setting": "[1]; Table 4C, serum 8274, 20-fold dilution", "result": 2.943},
      {"measurement": "optical density (450 nm)", "setting": "[1]; Table 4C, serum 8275, 20-fold dilution", "result": 2.030},
      {"measurement": "optical density (450 nm)", "setting": "[1]; Table 4C, serum 8276, 20-fold dilution", "result": 2.348},
      {"measurement": "optical density (450 nm)", "setting": "[1]; Table 4C, serum 8277, 20-fold dilution", "result": 2.572},
      {"measurement": "optical density (450 nm)", "setting": "[1]; Table 4C, serum 8278, 20-fold dilution", "result": 2.022},
      {"measurement": "optical density (450 nm)", "setting": "[1]; Table 5, sample 8242 (positive), peptide concentration 0.01 micrograms per milliliter, listed as HCV peptide II", "result": 1.196},
      {"measurement": "optical density (450 nm)", "setting": "[1]; Table 5, sample 8242 (positive), peptide concentration 0.03 micrograms per milliliter, listed as HCV peptide II", "result": 1.481},
      {"measurement": "optical density (450 nm)", "setting": "[1]; Table 5, sample 8242 (positive), peptide concentration 0.1 micrograms per milliliter, listed as HCV peptide II", "result": 1.399},
      {"measurement": "optical density (450 nm)", "setting": "[1]; Table 5, sample 8242 (positive), peptide concentration 0.3 micrograms per milliliter, listed as HCV peptide II", "result": 1.365},
      {"measurement": "optical density (450 nm)", "setting": "[1]; Table 5, sample 8242 (positive), peptide concentration 1.0 micrograms per milliliter, listed as HCV peptide II", "result": 1.368},
      {"measurement": "optical density (450 nm)", "setting": "[1]; Table 5, sample 8242 (positive), peptide concentration 3.0 micrograms per milliliter, listed as HCV peptide II", "result": 1.427},
      {"measurement": "optical density (450 nm)", "setting": "[1]; Table 5, sample 8243 (positive), peptide concentration 0.01 micrograms per milliliter, listed as HCV peptide II", "result": 1.088},
      {"measurement": "optical density (450 nm)", "setting": "[1]; Table 5, sample 8243 (positive), peptide concentration 0.03 micrograms per milliliter, listed as HCV peptide II", "result": 1.597},
      {"measurement": "optical density (450 nm)", "setting": "[1]; Table 5, sample 8243 (positive), peptide concentration 0.1 micrograms per milliliter, listed as HCV peptide II", "result": 1.639},
      {"measurement": "optical density (450 nm)", "setting": "[1]; Table 5, sample 8243 (positive), peptide concentration 0.3 micrograms per milliliter, listed as HCV peptide II", "result": 1.608},
      {"measurement": "optical density (450 nm)", "setting": "[1]; Table 5, sample 8243 (positive), peptide concentration 1.0 micrograms per milliliter, listed as HCV peptide II", "result": 1.652},
      {"measurement": "optical density (450 nm)", "setting": "[1]; Table 5, sample 8243 (positive), peptide concentration 3.0 micrograms per milliliter, listed as HCV peptide II", "result": 1.668},
      {"measurement": "optical density (450 nm)", "setting": "[1]; Table 5, sample 8318 (positive), peptide concentration 0.01 micrograms per milliliter, listed as HCV peptide II", "result": 2.002},
      {"measurement": "optical density (450 nm)", "setting": "[1]; Table 5, sample 8318 (positive), peptide concentration 0.03 micrograms per milliliter, listed as HCV peptide II", "result": 2.181},
      {"measurement": "optical density (450 nm)", "setting": "[1]; Table 5, sample 8318 (positive), peptide concentration 0.1 micrograms per milliliter, listed as HCV peptide II", "result": 2.001},
      {"measurement": "optical density (450 nm)", "setting": "[1]; Table 5, sample 8318 (positive), peptide concentration 0.3 micrograms per milliliter, listed as HCV peptide II", "result": 1.958},
      {"measurement": "optical density (450 nm)", "setting": "[1]; Table 5, sample 8318 (positive), peptide concentration 1.0 micrograms per milliliter, listed as HCV peptide II", "result": 1.993},
      {"measurement": "optical density (450 nm)", "setting": "[1]; Table 5, sample 8318 (positive), peptide concentration 3.0 micrograms per milliliter, listed as HCV peptide II", "result": 2.016},
      {"measurement": "optical density (450 nm)", "setting": "[1]; Table 5, sample 8320 (positive), peptide concentration 0.01 micrograms per milliliter, listed as HCV peptide II", "result": 2.519},
      {"measurement": "optical density (450 nm)", "setting": "[1]; Table 5, sample 8320 (positive), peptide concentration 0.03 micrograms per milliliter, listed as HCV peptide II", "result": 2.757},
      {"measurement": "optical density (450 nm)", "setting": "[1]; Table 5, sample 8320 (positive), peptide concentration 0.1 micrograms per milliliter, listed as HCV peptide II", "result": 2.718},
      {"measurement": "optical density (450 nm)", "setting": "[1]; Table 5, sample 8320 (positive), peptide concentration 0.3 micrograms per milliliter, listed as HCV peptide II", "result": 2.684},
      {"measurement": "optical density (450 nm)", "setting": "[1]; Table 5, sample 8320 (positive), peptide concentration 1.0 micrograms per milliliter, listed as HCV peptide II", "result": 2.684},
      {"measurement": "optical density (450 nm)", "setting": "[1]; Table 5, sample 8320 (positive), peptide concentration 3.0 micrograms per milliliter, listed as HCV peptide II", "result": 2.718},
      {"measurement": "optical density (450 nm)", "setting": "[1]; Table 8, serum 8243 (HCV), Avidin", "result": 1.430},
      {"measurement": "optical density (450 nm)", "setting": "[1]; Table 8, serum 8247 (HCV), Avidin", "result": 1.356},
      {"measurement": "optical density (450 nm)", "setting": "[1]; Table 8, serum 8248 (HCV), Avidin", "result": 2.287},
      {"measurement": "optical density (450 nm)", "setting": "[1]; Table 8, serum 8269 (HCV), Avidin", "result": 1.213},
      {"measurement": "optical density (450 nm)", "setting": "[1]; Table 8, serum 8273 (HCV), Avidin", "result": 2.017},
      {"measurement": "optical density (450 nm)", "setting": "[1]; Table 8, serum 8278 (HCV), Avidin", "result": 1.878},
      {"measurement": "optical density (450 nm)", "setting": "[1]; Table 8, serum 8285 (HCV), Avidin", "result": 1.592},
      {"measurement": "optical density (450 nm)", "setting": "[1]; Table 8, serum 8290 (HCV), Avidin", "result": 0.060},
      {"measurement": "optical density (450 nm)", "setting": "[1]; Table 8, serum 8291 (HCV), Avidin", "result": 1.539},
      {"measurement": "PEPTIDE ELISA (O.D.)", "setting": "[1]; serum 0843", "result": 2.306},
      {"measurement": "PEPTIDE ELISA (O.D.)", "setting": "[1]; serum 8240", "result": 2.441},
      {"measurement": "PEPTIDE ELISA (O.D.)", "setting": "[1]; serum 8241", "result": 0.545},
      {"measurement": "PEPTIDE ELISA (O.D.)", "setting": "[1]; serum 8242", "result": 2.415},
      {"measurement": "PEPTIDE ELISA (O.D.)", "setting": "[1]; serum 8332", "result": 1.977},
      {"measurement": "PEPTIDE ELISA (O.D.)", "setting": "[1]; serum 8339", "result": 2.030},
      {"measurement": "PEPTIDE ELISA (O.D.)", "setting": "[1]; serum 8350", "result": 1.982},
      {"measurement": "PEPTIDE ELISA (O.D.)", "setting": "[1]; serum 8377", "result": 2.181},
      {"measurement": "PEPTIDE ELISA (O.D.)", "setting": "[1]; serum 8378", "result": 2.140},
      {"measurement": "PEPTIDE ELISA (O.D.)", "setting": "[1]; serum 8388", "result": 2.463},
      {"measurement": "optical density (450 nm)", "setting": "[2]; Table 4C, negative serum", "result": 0.070},
      {"measurement": "optical density (450 nm)", "setting": "[2]; Table 5, sample 1747 (negative), peptide concentration 0.01 micrograms per milliliter, listed as HCV peptide II", "result": 0.045},
      {"measurement": "optical density (450 nm)", "setting": "[2]; Table 5, sample 1747 (negative), peptide concentration 0.03 micrograms per milliliter, listed as HCV peptide II", "result": 0.045},
      {"measurement": "optical density (450 nm)", "setting": "[2]; Table 5, sample 1747 (negative), peptide concentration 0.1 micrograms per milliliter, listed as HCV peptide II", "result": 0.045},
      {"measurement": "optical density (450 nm)", "setting": "[2]; Table 5, sample 1747 (negative), peptide concentration 0.3 micrograms per milliliter, listed as HCV peptide II", "result": 0.046},
      {"measurement": "optical density (450 nm)", "setting": "[2]; Table 5, sample 1747 (negative), peptide concentration 1.0 micrograms per milliliter, listed as HCV peptide II", "result": 0.071},
      {"measurement": "optical density (450 nm)", "setting": "[2]; Table 5, sample 1747 (negative), peptide concentration 3.0 micrograms per milliliter, listed as HCV peptide II", "result": 0.064},
      {"measurement": "optical density (450 nm)", "setting": "[2]; Table 5, sample 1781 (negative), peptide concentration 0.01 micrograms per milliliter, listed as HCV peptide II", "result": 0.053},
      {"measurement": "optical density (450 nm)", "setting": "[2]; Table 5, sample 1781 (negative), peptide concentration 0.03 micrograms per milliliter, listed as HCV peptide II", "result": 0.049},
      {"measurement": "optical density (450 nm)", "setting": "[2]; Table 5, sample 1781 (negative), peptide concentration 0.1 micrograms per milliliter, listed as HCV peptide II", "result": 0.047},
      {"measurement": "optical density (450 nm)", "setting": "[2]; Table 5, sample 1781 (negative), peptide concentration 0.3 micrograms per milliliter, listed as HCV peptide II", "result": 0.051},
      {"measurement": "optical density (450 nm)", "setting": "[2]; Table 5, sample 1781 (negative), peptide concentration 1.0 micrograms per milliliter, listed as HCV peptide II", "result": 0.055},
      {"measurement": "optical density (450 nm)", "setting": "[2]; Table 5, sample 1781 (negative), peptide concentration 3.0 micrograms per milliliter, listed as HCV peptide II", "result": 0.057},
      {"measurement": "optical density (450 nm)", "setting": "[2]; Table 8, serum 1782 (blood donor), Avidin", "result": 0.057},
      {"measurement": "optical density (450 nm)", "setting": "[2]; Table 8, serum 1784 (blood donor), Avidin", "result": 0.045},
      {"measurement": "optical density (450 nm)", "setting": "[2]; Table 8, serum 1785 (blood donor), Avidin", "result": 0.045},
      {"measurement": "optical density (450 nm)", "setting": "[2]; Table 8, serum 1794 (blood donor), Avidin", "result": 0.153}
    ]}
  ]
}
